Results on 34 compounds are retold here after patent publication US7241791B2, “Substituted 4-(indazol-3-yl)phenols” (Wyeth, priority 2002, dated 2007).

Read-outs that look alike come from different tables or passages of the source.

Assay [1] has as its target T1, human ERα (Homo sapiens, UniProt P03372).
T1 sequence (P03372 1-595): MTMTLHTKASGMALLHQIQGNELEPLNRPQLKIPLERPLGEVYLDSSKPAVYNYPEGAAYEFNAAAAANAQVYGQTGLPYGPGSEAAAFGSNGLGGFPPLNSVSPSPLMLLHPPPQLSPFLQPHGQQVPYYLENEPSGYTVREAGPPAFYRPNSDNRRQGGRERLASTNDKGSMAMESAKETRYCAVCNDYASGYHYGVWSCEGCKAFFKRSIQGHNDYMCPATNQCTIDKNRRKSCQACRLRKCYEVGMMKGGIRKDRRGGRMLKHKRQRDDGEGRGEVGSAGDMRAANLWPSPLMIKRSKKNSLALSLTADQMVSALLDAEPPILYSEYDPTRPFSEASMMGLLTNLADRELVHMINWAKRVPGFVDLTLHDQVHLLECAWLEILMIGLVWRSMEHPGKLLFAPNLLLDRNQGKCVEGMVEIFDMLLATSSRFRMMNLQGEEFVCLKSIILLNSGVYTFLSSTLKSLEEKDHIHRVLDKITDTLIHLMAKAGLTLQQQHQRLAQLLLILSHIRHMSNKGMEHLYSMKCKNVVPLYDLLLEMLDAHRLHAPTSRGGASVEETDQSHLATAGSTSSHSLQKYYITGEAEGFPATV
Briefly: Creatine kinase expression (ER/CK) in Ad5-wt-hERα infected HAECT-1 cells. Particulars: for ER/CK % E2: efficacy relative to the maximal stimulation observed with E2.

The target in assay [2] is T1, human ERα. Briefly: NF-κB luciferase reporter (ER/NF-KB-luc) in Ad5-wt-hERα infected HAECT-1 cells. Particulars: for IC50: ER/NF-KB-luc IC50, Ad5-wt-ER infected HAECT-1 cells, IL-1β.
Where [3] appears, read: HAECT1, read-out: ER/NF-KB-luc % E2, efficacy relative to the maximal inhibition observed with E2.

Take “4-[1-isopropyl-7-(2-methylphenyl)-1H-indazol-3-yl]-3-methyl-phenol [Example 256]”: the EC50 in assay [1] (read-out: ER/CK EC50, Ad5-wt-ER infected HAECT-1 cells) came out at 292 nM.

As for `Cc1cccc(-n2nc(-c3ccc(O)cc3O)c3ccc(O)cc32)c1` [Example 23, 4-[6-hydroxy-1-(3-methylphenyl)-1H-indazol-3-yl]benzene-1,3-diol], the IC50 in assay [2] stood at 239 nM. Besides, the Emax in assay [2] (setting [3]) worked out at 76%. For the same compound, in assay [1], the EC50 was found to be 72 nM and the “ER/CK % E2” value is 55 % E2.

With `Oc1ccc(-c2nn(C3CCCCC3)c3c(F)cccc23)cc1` [Example 33, 4-(1-cyclohexyl-7-fluoro-1H-indazol-3-yl)phenol], inhibition in assay [2] was half-maximal at 37 nM (IC50). Also, in assay [2] (setting [3]), the Emax stood at 92%. Besides, in assay [1], the EC50 is 51 nM and the “ER/CK % E2” value is recorded as 34 % E2.

In turn, `CCNC(=O)Oc1ccc(-c2nn(C3CCCC3)c3c(F)cccc23)cc1` [Example 118, 4-(1-cyclopentyl-7-fluoro-1H-indazol-3-yl)phenyl ethylcarbamate] came in with a half-maximal inhibitory concentration (IC50) in assay [2] of 418 nM. Also, the Emax in assay [2] (HAECT1, read-out: ER/NF-KB-luc % E2) was determined as 66%.

In assay [2], `CCCn1nc(-c2ccc(OC(=O)CC(C)(C)C)cc2)c2cccc(Cl)c21` [Example 122, 4-(7-chloro-1-propyl-1H-indazol-3-yl)phenyl 3,3-dimethylbutanoate] yielded an IC50 of 350 nM. Further, the Emax in assay [2] (setting [3]) came to 78%.

Consider `CCCn1nc(-c2ccc(OC(=O)CC)cc2)c2cccc(Cl)c21` [Example 123, 4-(7-chloro-1-propyl-1H-indazol-3-yl)phenyl propionate], for which inhibition in assay [2] was half-maximal at 328 nM (IC50). Besides, in assay [2] (setting [3]), the Emax turned out to be 71%.

Take `Cn1nc(-c2ccc(O)cc2)c2cc(F)c(Cl)cc21` [Example 125, 4-(6-chloro-5-fluoro-1-methyl-1H-indazol-3-yl)phenol]: in assay [2], the IC50 worked out at 479 nM. Moreover, the Emax in assay [2] (setting [3]) is 128%.

As for `Oc1ccc(-c2nn(Cc3ccccc3)c3c(C(F)(F)F)cccc23)c(O)c1` [Example 143, 4-[1-benzyl-7-(trifluoromethyl)-1H-indazol-3-yl]benzene-1,3-diol], inhibition in assay [2] was half-maximal at 310 nM (IC50). For the same compound, in assay [2] (setting [3]), the Emax was 65%.

Take `Oc1ccc(-c2nn(Cc3ccccc3)c3c(C(F)(F)F)cccc23)cc1` [Example 147, 4-[1-benzyl-7-(trifluoromethyl)-1H-indazol-3-yl]phenol]: in assay [2] (setting [3]), the Emax came out at 65%.

`Oc1ccc(-c2nn(Cc3ccccc3)c3c(F)cccc23)c(O)c1` [Example 151, 4-(1-benzyl-7-fluoro-1H-indazol-3-yl)benzene-1,3-diol] showed a concentration for half-maximal inhibition (IC50) in assay [2] of 1060 nM. Besides, in assay [2] (setting [3]), the Emax amounted to 81%.

As for `OCCn1nc(-c2ccc(O)cc2)c2cccc(C(F)(F)F)c21` [Example 162, 4-[1-(2-hydroxyethyl)-7-(trifluoromethyl)-1H-indazol-3-yl]phenol], the Emax in assay [2] (setting [3]) is 84%.

Turning to `CCCCn1nc(-c2ccc(O)cc2)c2cccc(C(F)(F)F)c21` [Example 219, 4-[1-butyl-7-(trifluoromethyl)-1H-indazol-3-yl]phenol], inhibition in assay [2] was half-maximal at 369 nM (IC50). Besides, the Emax in assay [2] (setting [3]) was found to be 104%.

`CSc1ccc(-c2cccc3c(-c4ccc(O)cc4)nn(C(C)C)c23)cc1` [Example 228, 4-{1-isopropyl-7-[4-(methylthio)phenyl]-1H-indazol-3-yl}phenol] returned an IC50 in assay [2] of 75 nM. Besides, in assay [2] (setting [3]), the Emax worked out at 83%.

Compound `CC(C)n1nc(-c2ccc(O)cc2)c2cccc(-c3ccc(CO)cc3)c21` [Example 230, 4-{7-[4-(hydroxymethyl)phenyl]-1-isopropyl-1H-indazol-3-yl}-phenol] gave a half-inhibitory concentration (IC50) in assay [2] of 367 nM. Moreover, the Emax in assay [2] (setting [3]) stood at 82%.

Consider `CCc1ccc(-c2cccc3c(-c4ccc(O)cc4)nn(C(C)C)c23)cc1` [Example 232, 4-[7-(4-ethylphenyl)-1-isopropyl-1H-indazol-3-yl]phenol], for which inhibition in assay [2] was half-maximal at 143 nM (IC50). For the same compound, the Emax in assay [2] (setting [3]) was 75%.

With `CC(C)n1nc(-c2ccc(O)cc2)c2cccc(-c3ccc(-c4ccccc4)cc3)c21` [Example 233, 4-[7-(1,1′-biphenyl-4-yl)-1-isopropyl-1H-indazol-3-yl]phenol], the midpoint of inhibition in assay [2], the IC50, lay at 87 nM. The Emax in assay [2] (setting [3]) was 81%.

As for `CC(C)n1nc(-c2ccc(O)cc2)c2cccc(-c3ccccc3Cl)c21` [Example 234, 4-[7-(2-chlorophenyl)-1-isopropyl-1H-indazol-3-yl]phenol], 34 nM corresponded to half-maximal inhibition in assay [2] (IC50). Further, the Emax in assay [2] (setting [3]) was determined as 72%.

`Oc1ccc(-c2nn(C3CCCC3)c3c(-c4ccc(C(F)(F)F)cc4)cccc23)cc1` [Example 237, 4-{1-cyclopentyl-7-[4-(trifluoromethyl)phenyl]-1H-indazol-3-yl}-phenol] yielded an IC50 in assay [2] of 480 nM. Further, the Emax in assay [2] (setting [3]) came to 79%.

Regarding `Oc1ccc(-c2nn(C3CCCC3)c3c(-c4cccs4)cccc23)cc1` [Example 238, 4-(1-cyclopentyl-7-thien-2-yl-1H-indazol-3-yl)phenol], in assay [2], the midpoint of inhibition, the IC50, lay at 11 nM. Further, the Emax in assay [2] (setting [3]) stood at 74%.

On to `CCc1ccc(-c2cccc3c(-c4ccc(O)cc4)nn(C4CCCC4)c23)cc1` [Example 241, 4-[1-cyclopentyl-7-(4-ethylphenyl)-1H-indazol-3-yl]phenol], for which 32 nM corresponded to half-maximal inhibition in assay [2] (IC50). Further, in assay [2] (setting [3]), the Emax is 60%.

`Oc1ccc(-c2nn(C3CCCC3)c3c(-c4ccccc4Cl)cccc23)cc1` [Example 243, 4-[7-(2-chlorophenyl)-1-cyclopentyl-1H-indazol-3-yl]phenol] came in with an IC50 in assay [2] of 142 nM. The Emax in assay [2] (setting [3]) worked out at 83%.

As for `Cc1ccccc1-c1cccc2c(-c3ccc(O)cc3)nn(C3CCCC3)c12` [Example 245, 4-[1-cyclopentyl-7-(2-methylphenyl)-1H-indazol-3-yl]phenol], the IC50 in assay [2] stood at 16 nM. Besides, the Emax in assay [2] (setting [3]) is 70%.

Turning to `CCCCC/C=C/c1cccc2c(-c3ccc(O)cc3C)nn(C(C)C)c12` [Example 248, 4-{7-[(E)-hept-1-enyl]-1-isopropyl-1H-indazol-3-yl}-3-methyl-phenol], the half-maximal inhibitory concentration (IC50) in assay [2] worked out at 481 nM. Further, in assay [2] (setting [3]), the Emax was found to be 73%.

For `Cc1cc(O)ccc1-c1nn(C(C)C)c2c(-c3ccc(CO)cc3)cccc12` [Example 249, 4-{7-[14-(hydroxymethyl)phenyl]-1-isopropyl-1H-indazol-3-yl}-3-methylphenol], the IC50 in assay [2] is 59 nM. Besides, in assay [2] (setting [3]), the Emax came to 59%.

For `Cc1cc(O)ccc1-c1nn(C(C)C)c2c(-c3ccc(O)c(O)c3)cccc12` [Example 250, 4-[3-(4-hydroxy-2-methylphenyl)-1-isopropyl-1H-indazol-7-yl]-benzene-1,2-diol], the Emax in assay [2] (setting [3]) is 80%.

For the compound `CCc1ccc(-c2cccc3c(-c4ccc(O)cc4C)nn(C(C)C)c23)cc1` [Example 251, 4-[7-(4-ethylphenyl)-1-isopropyl-1H-indazol-3-yl]-3-methylphenol], the concentration for half-maximal inhibition (IC50) in assay [2] came to 24 nM. Also, the Emax in assay [2] (setting [3]) was determined as 57%.

Regarding `Cc1cc(O)ccc1-c1nn(C(C)C)c2c(-c3ccc(-c4ccccc4)cc3)cccc12` [Example 252, 4-[7-(1,1′-biphenyl-4-yl)-1-isopropyl-1H-indazol-3-yl]-3-methyl-phenol], in assay [2], 56 nM corresponded to half-maximal inhibition (IC50). The Emax in assay [2] (setting [3]) was 59%.

The compound `Cc1cc(O)ccc1-c1nn(C(C)C)c2c(-c3ccccc3Cl)cccc12` [Example 253, 4-[7-(2-chlorophenyl)-1-isopropyl-1H-indazol-3-yl]-3-methyl-phenol] returned an IC50 in assay [2] of 21 nM. Besides, the Emax in assay [2] (setting [3]) was 62%.

On to `Cc1cc(O)ccc1-c1nn(C(C)C)c2c(-c3ccco3)cccc12` [Example 254, 4-[7-(2-furyl)-1-isopropyl-1H-indazol-3-yl]-3-methylphenol], for which, in assay [2], the IC50 worked out at 27 nM. Further, the Emax in assay [2] (setting [3]) was determined as 56%.

In turn, `Cc1cc(O)ccc1-c1nn(C(C)C)c2c(-c3ccccc3C)cccc12` [Example 255, 4-[1-isopropyl-7-(2-methylphenyl)-1H-indazol-3-yl]-3-methyl-phenol] registered a half-maximal inhibitory concentration (IC50) in assay [2] of 4 nM. The Emax in assay [2] (setting [3]) worked out at 89%.

`CCCCC/C=C/c1cccc2c(-c3ccc(O)cc3C)nn(C3CCCC3)c12` [Example 258, 4-{1-cyclopentyl-7-[(E)-hept-1-enyl]-1H-indazol-3-yl}-3-methyl-phenol]: in assay [2], it took 644 nM to reach half-maximal inhibition (IC50). The Emax in assay [2] (setting [3]) came to 77%.

Turning to `CCc1ccc(-c2cccc3c(-c4ccc(O)cc4C)nn(C4CCCC4)c23)cc1` [Example 260, 4-[1-cyclopentyl-7-(4-ethylphenyl)-1H-indazol-3-yl]-3-methyl-phenol], in assay [2], the IC50 came to 28 nM. For the same compound, the Emax in assay [2] (setting [3]) was found to be 53%.

In assay [2], `Cc1cc(O)ccc1-c1nn(C2CCCC2)c2c(-c3ccc(-c4ccccc4)cc3)cccc12` [Example 261, 4-[7-(1,1′-biphenyl-4-yl)-1-cyclopentyl-1H-indazol-3-yl]-3-methyl-phenol] had an IC50 of 98 nM. Also, in assay [2] (setting [3]), the Emax stood at 42%.

As for `Cc1cc(O)ccc1-c1nn(C2CCCC2)c2c(-c3ccccc3Cl)cccc12` [Example 262, 4-[7-(2-chlorophenyl)-1-cyclopentyl-1H-indazol-3-yl]-3-methyl-phenol], the half-maximal inhibitory concentration (IC50) in assay [2] was 8 nM. In addition, the Emax in assay [2] (setting [3]) is 75%.
